We go through 34 compounds from patent US6140354A, “N-substituted aminotetralins as ligands for the neuropeptide Y Y5 receptor useful in the treatment of obesity and other disorders” (Ortho-McNeil Pharmaceutical, Inc., priority 1999, dated 2000).

The experiment deals with T1, human neuropeptide Y5 receptor (Homo sapiens, UniProt Q15761).
T1 construct: expressed in transfected cells
T1 sequence (Q15761 1-445): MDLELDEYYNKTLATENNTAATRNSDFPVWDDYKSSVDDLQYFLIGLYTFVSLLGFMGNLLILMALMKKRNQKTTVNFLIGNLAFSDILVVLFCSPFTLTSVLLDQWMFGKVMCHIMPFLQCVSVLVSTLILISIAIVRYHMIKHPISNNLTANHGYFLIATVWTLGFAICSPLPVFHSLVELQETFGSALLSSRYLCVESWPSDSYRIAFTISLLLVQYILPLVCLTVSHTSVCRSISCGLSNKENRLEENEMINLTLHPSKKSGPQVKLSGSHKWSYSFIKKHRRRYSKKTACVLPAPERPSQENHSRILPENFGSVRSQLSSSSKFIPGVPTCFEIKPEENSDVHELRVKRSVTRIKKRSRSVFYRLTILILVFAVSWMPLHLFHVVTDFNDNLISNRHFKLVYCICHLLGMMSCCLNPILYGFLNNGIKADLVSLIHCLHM
Nature of the experiment: NPY5 HTS Centrifugation Assay: competition with 125I-PYY for binding to NPY5-transfected HEK293 cell membranes. Conditions: 80 pM 125I-PYY, 1 hr room temperature, read-out: % Inh @ 3 uM (% Inhibition of ^125 I-PYY Binding). Here is the method: The compounds described in this invention were evaluated for binding to the human neuropeptide Y5 receptor.
The human NPY5 receptor cDNA (Genbank Accession number U66275) was inserted into the vector pClneo (Invitrogen) and transfected into human embryonic kidney cells (HEK-293) via Calcium phosphate method (Cullen 1987). Stably transfected cells were selected with G-418 (600 ug/mL). Stably transfected cells served as the source for the membranes for the NPY5 receptor binding assay.
NPY5-transfected HEK293 cells were grown to confluence in 150 cm^2 culture dishes. Cells were washed once with phosphate-buffered saline (Gibco Cat#14040-133). Cells were then incubated in phosphate-buffered saline without Calcium and without Magnesium, supplemented with 2 mM EDTA. Cells were incubated for 10 minutes at room temperature and the cells were collected by repetitive pipeting. Cells were formed into pellets and then frozen at -80 until needed. Frozen pellets were homogenized with a polytron at full speed for 12 seconds in a homogenization buffer (20 mM Tris HCl, 5 mM EDTA, pH 7.4). Homogenates were centrifuged for 5 minutes at 4C at 200 g. Supernatants were transferred to corex tubes and centrifuged for 25 minutes at 28,000 g. Pellets were re-suspended in Binding (20 mM HEPES, 10 mM NaCl, 0.22 mM KH2 PO4, 1.3 mM CaCl2, 0.8 mM MgSO4, pH 7.4). Membranes were kept on ice until use.
A competition binding assay, known to those skilled in the art, was used in which aminotetralins (I) compete with ^125 I-PYY for binding to cell membranes. In simple terms, the less ^125 I-PYY bound to the membranes implies that a compound is a good inhibitor (competitor). Bound ^125 I-PYY is determined by centrifugation of membranes, aspirating supernatant, washing away residual ^125 I-PYY and subsequently counting the bound sample in a g-counter.
Compounds to be tested were prepared as 10× stocks in binding buffer and added first to assay tubes (RIA vials, Sarstedt). Twenty (20) μL of each 10× compound stock is pipeted into vials and 80 μL of ^125 I-PYY (NEN catalog number NEX240), which has been diluted to a concentration of 200 pM in 0.25% BSA in binding buffer, is added to the compound tubes (final concentration of ^125 I-PYY is 80 pM). To each tube is added 100 μL of membranes and the mixture is agitated by pipeting 2 times. Samples are incubated for 1 hr at room temperature. Aluminum cast plates (Sarstedt) containing the vials are then centrifuged 10 minutes at 3200 rpm in a Sorvall RT6000. Supernatant is then aspirated. To each vial 400 μL PBS is added and this is then aspirated again. Vials are then put in carrier polypropylene 12×75 tube and counted in gamma counter (Packard). Non-specific binding is determined in the presence of 300 nM NPY. Percent inhibition of ^125 I-PYY binding is calculated by subtracting non-specific binding from the test samples (compound (I)), taking these counts and dividing by total binding, and multiplying by 100. Inhibitory concentration values (IC50) of compounds that show appreciable inhibition of ^125 I-PYY binding are calculated by obtaining percent inhibition of ^125 I-PYY binding values at different concentrations of the test compound, and using a graphing program such as GraphPad Prism (San Diego, Calif.) to calculate the concentration of test compound that inhibits fifty-percent of ^125 I-PYY binding (Table 4). These operations are known to those skilled in the art.

Regarding `O=S(=O)(NC1CCC(CNC2CCc3ccccc3C2Cc2cccnc2)CC1)c1ccccc1` (stereo not shown) [Compound 112], the inhibition at 3 µM is 95%. To `COc1ccc2c(c1)C(Cc1ccccc1)C(NC[C@H]1CC[C@H](CNS(=O)(=O)c3ccc4ccccc4c3)CC1)CC2` (relative stereo) [Compound 80] belongs 75%; to `COc1ccc2c(c1)CC[C@H](NC[C@H]1CC[C@H](CNS(=O)(=O)c3ccc4ccccc4c3)CC1)[C@@H]2Cc1ccccc1` (relative stereo) [Compound 10, rac-[1α,2α(trans)]-N-[[[[[1,2,3,4-tetrahydro-6-methoxy-1-(phenylmethyl)-2-naphthalenyl]amino]methyl]-4-cyclohexyl]methyl]2-naphthalenesulfonamide], 96%; to `COc1ccc2c(c1)CCC(NC[C@H]1CC[C@H](CNS(=O)(=O)c3ccc(F)cc3)CC1)C2Cc1ccccc1` (relative stereo) [Compound 58], 91%. Turning to `COc1ccc2c(c1)CCC(NC[C@H]1CC[C@H](CNS(=O)(=O)c3ccc(Cl)cc3Cl)CC1)C2Cc1ccccc1` (stereo partly shown) [Compound 61], the inhibition at 3 µM came out at 94%. Take `COc1ccc2c(c1)CC[C@H](NCCCCCNS(=O)(=O)c1ccc3ccccc3c1)[C@@H]2Cc1ccccc1` (relative stereo) [Compound 11, rac-[1α,2α(trans)]-N-[[[[[1,2,3,4-tetrahydro-6-methoxy-1-(phenylmethyl)-2-naphthalenyl]amino]-5-pentyl]2-naphthalenesulfonamide]: the inhibition at 3 µM amounted to 95%. In the case of `COc1ccc2c(c1)CCC(NC[C@H]1CC[C@H](CNS(=O)(=O)c3ccccc3)CC1)C2Cc1ccccc1Cl` (relative stereo) [Compound 95], the inhibition at 3 µM amounted to 84%.

In the case of `COc1ccc2c(c1)CCC(NC[C@H]1CC[C@H](CNS(=O)(=O)c3ccccc3)CC1)C2Cc1ccc([N+](=O)[O-])cc1` (stereo partly shown) [Compound 87], the inhibition at 3 µM is 84%. Take `COc1ccc2c(c1)CCC(NC[C@H]1CC[C@H](CNS(=O)(=O)c3ccc([N+](=O)[O-])cc3)CC1)C2Cc1ccccc1` (stereo partly shown) [Compound 63]: the inhibition at 3 µM stood at 93%. To `COc1ccc2c(c1)CCC(NC[C@H]1CC[C@H](CNS(=O)(=O)c3ccc(Br)cc3)CC1)C2Cc1ccccc1` (stereo partly shown) [Compound 70] belongs 95%; to `O=S(=O)(NCCCCCN[C@H]1CCc2ccccc2[C@H]1Cc1ccccc1)c1ccc2ccccc2c1` (relative stereo) [Compound 46], 89%. To `COc1ccc2c(c1)CCC(NC[C@H]1CC[C@H](CNS(=O)(=O)c3ccccc3Cl)CC1)C2Cc1ccccc1` (relative stereo) [Compound 66] belongs 99%. Turning to `COc1ccc2c(c1)CCC(NC[C@H]1CC[C@H](CNS(=O)(=O)c3cccc(F)c3)CC1)C2Cc1ccccc1` (stereo partly shown) [Compound 60], the inhibition at 3 µM is 94%.

On to `COc1ccc2c(c1)CCC(NC[C@H]1CC[C@H](CNS(=O)(=O)c3cccc(Br)c3)CC1)C2Cc1ccccc1` (stereo partly shown) [Compound 69], for which the inhibition at 3 µM was 93%. As to `COc1ccc2c(c1)CCC(NC[C@H]1CC[C@H](CNS(=O)(=O)c3ccccc3CN)CC1)C2Cc1ccccc1` (stereo partly shown) [Compound 67], the inhibition at 3 µM is 91%. Regarding `O=S(=O)(NC[C@H]1CC[C@H](CNC2CCc3cc(F)ccc3C2Cc2ccccc2)CC1)c1ccccc1` (relative stereo) [Compound 103], the inhibition at 3 µM stood at 98%.

Take `COc1ccc(CC2c3ccc(OC)cc3CCC2NC[C@H]2CC[C@H](CNS(=O)(=O)c3ccccc3)CC2)cc1` (stereo partly shown) [Compound 86]: the inhibition at 3 µM is 25%. To `O=S(=O)(NC[C@H]1CC[C@H](CNC2CCc3cccc(Cl)c3C2Cc2ccccc2)CC1)c1ccccc1` (relative stereo) [Compound 106] belongs 104%; to `O=S(=O)(NC[C@H]1CC[C@H](CNC2CCc3cc(F)ccc3C2Cc2ccccc2)CC1)c1ccc(Cl)c(Cl)c1` (stereo partly shown) [Compound 78], 92%; to `CCC[C@@H]1c2ccc(OC)cc2CC[C@@H]1NC[C@H]1CC[C@H](CNS(=O)(=O)c2ccccc2)CC1` (relative stereo) [Compound 42, rac-[1α,2α(trans)]-N-[[[[[1,2,3,4-tetrahydro-6-methoxy-1-(n-propyl)-2-naphthalenyl]amino]methyl]-4-cyclohexyl]methyl] benzenesulfonamide], 101%. To `COc1ccc2c(c1)CCC(NC[C@H]1CC[C@H](CNS(=O)(=O)c3cccc([N+](=O)[O-])c3)CC1)C2Cc1ccccc1` (stereo partly shown) [Compound 62] belongs 95%; to `COc1ccc2c(c1)CCC(NC[C@H]1CC[C@H](CNS(=O)(=O)c3ccccc3[N+](=O)[O-])CC1)C2Cc1c(F)cccc1F` (relative stereo) [Compound 90], 97%; to `COc1ccc2c(c1)C(Cc1ccccc1)C(NC[C@H]1CC[C@H](CNS(=O)(=O)c3ccccc3)CC1)CC2` (stereo partly shown) [Compound 79], 93%. To `O=S(=O)(NC[C@H]1CC[C@H](CNC2CCc3cc(F)ccc3C2Cc2ccccc2)CC1)c1ccccc1Cl` (relative stereo) [Compound 73] belongs 107%; to `COc1ccc2c(c1)CCC(NC[C@H]1CC[C@H](CNS(=O)(=O)c3ccc4ccccc4c3)CC1)C2Cc1cccc(Cl)c1` (stereo partly shown) [Compound 93], 60%. Take `O=[N+]([O-])c1ccccc1S(=O)(=O)NC[C@H]1CC[C@H](CNC2CCc3cc(F)ccc3C2Cc2ccccc2)CC1` (relative stereo) [Compound 72]: the inhibition at 3 µM came out at 106%. In the case of `COc1ccc2c(c1)CC[C@H](NC[C@H]1CC[C@H](CNS(=O)(=O)c3ccccc3[N+](=O)[O-])CC1)[C@@H]2Cc1ccccc1` (relative stereo) [Compound 54], the inhibition at 3 µM worked out at 94%.

For `COc1ccc2c(c1)CCC(NC[C@H]1CC[C@H](CNS(=O)(=O)c3ccccc3)CC1)C2Cc1ccccc1C(F)(F)F` (stereo partly shown) [Compound 98], the inhibition at 3 µM was determined as 30%. Regarding `COc1ccc2c(c1)CC[C@H](NC[C@H]1CC[C@H](CNS(=O)(=O)c3ccc4ccccc4c3)CC1)[C@@H]2c1ccccc1` (relative stereo) [Compound 34, [1α,2α(trans)]-N-[[[[[1,2,3,4-tetrahydro-6-methoxy-1-phenyl-2-naphthalenyl]amino]methyl]-4-cyclohexyl]methyl]2-naphthlenesulfonamide], the inhibition at 3 µM is 46%. On to `O=S(=O)(NC[C@H]1CC[C@H](CNC2CCc3c(Cl)cccc3C2Cc2ccccc2)CC1)c1ccccc1` (relative stereo) [Compound 105], for which the inhibition at 3 µM was 98%.

As for `COc1ccc2c(c1)CC[C@H](NC[C@H]1CC[C@H](CNS(=O)(=O)c3ccccc3)CC1)[C@@H]2Cc1ccccc1` (relative stereo) [Compound 52], the inhibition at 3 µM was 99%.

`COc1ccc2c(c1)CC[C@H](NCCCCCCCNS(=O)(=O)c1ccc3ccccc3c1)[C@@H]2Cc1ccccc1` (relative stereo) [Compound 47]: the inhibition at 3 µM turned out to be 79%.

`O=[N+]([O-])c1ccccc1S(=O)(=O)NC[C@H]1CC[C@H](CNC2CCc3cc(Cl)ccc3C2Cc2ccccc2)CC1` (stereo partly shown) [Compound 64]: the inhibition at 3 µM was determined as 93%. To `COc1ccc2c(c1)CCC(NCCCCCCCCNS(=O)(=O)c1ccc3ccccc3c1)C2Cc1ccccc1` (stereo not shown) [Compound 48] belongs 68%.
